Experimental data from patent US9044427B2, “Compositions and methods for prevention and treatment of wounds” (ONCONOVA THERAPEUTICS, INC, priority 2010, dated 2015).
Values joined by “and” are separate entries in the source; they are usually repeats but may differ in a detail not shown here. Identical values can stand only once. “Also recorded” adds a separate entry of the source. Marks after values point to notes of the source that are not given here.

System: mouse model of cutaneous injury
Assay: Wound healing in skin, mouse model of cutaneous injury (skin punch)
Type: in vivo
Details: for CT50 (Days), wound half-closure time, Mean: linear regression
Method: Test substance ON 01210.Na Solution was evaluated for possible effects on wound healing in a mouse model of cutaneous injury. The test substance was administered subcutaneously (SC) in two dosing regimens: the first was 24 hours and 15 minutes before skin punch, and the second was 4 hours and 15 minutes before skin punch. Percent closure of the wound (%) was determined on days 1, 3, 5, 7, 9, 11, 13, 15, 17, 19, 21 and 22, and the half closure time (CT50) was then obtained. One-way ANOVA followed by Dunnett's test was used to determine significant difference between vehicle control and treated groups at individual time points. Significant differences are considered at P<0.05 level.
ON 01210.Na Solution was provided by Onconova Therapeutics Inc in a preformulated form. Test substance was administered subcutaneously (SC) in two dosing patterns, the first was 24 hours and 15 minutes before skin punch, and the second was 4 hours and 15 minutes before skin punch. The dosing time of vehicle (ON 01210.Na Placebo Solution) was given as the second pattern. The dosing volume was 10 mL/kg.
Animals: Male ICR mice weighing 24±2 g were provided by BioLasco Taiwan (under Charles River Laboratories Technology Licensee). Test animals were housed individually in a cage (29×18×13 cm) after skin injury through experiment. All animals were maintained in a controlled temperature (21-23° C.) and humidity (50%-70%) environment with 12 hours light/dark cycles for at least three days in MDS Pharma Services—Taiwan Laboratory prior to use. Free access to standard lab chow for Mice [MF-18 (Oriental Yeast Co., Ltd., Japan)] and reverse osmosis (RO) water was granted. All aspects of this work including housing, experimentation and disposal of animals were performed in general accordance with the Guide for the Care and Use of Laboratory Animals (National Academy Press, Washington, D.C., 1996).
Groups of 8 ICR male mice weighing 24±2 g were used. During the study, the tested animals were housed in individual cages. Under hexobarbital (90 mg/kg, IP) anesthesia, the shoulder and back region of each animal was shaved. A sharp punch (ID 12 mm) was applied to remove the skin including panniculus carnosus and adherent tissues. Test substance was administered subcutaneously in two dosing patterns, the first was 24 hours and 15 minutes before skin punch, and the second was 4 hours and 15 minutes before skin punch the dosing time of vehicle (ON 01210.Na Placebo Solution) was given as the second dosing pattern. The wound area, traced onto clear plastic sheets, was measured by use of an Image—ProPlus (Media Cybernetics, Version 4.5.0.29) on days 1, 3, 5, 7, 9, 11, 13, 15, 17, 19, 21 and 22. The percent closure of the wound (%) was calculated, and wound half-closure time (CT50) was analyzed by linear regression using Graph-Prism (Graph Software USA). One-way ANOVA followed by Dunnett's test was applied for comparison between the treated and vehicle groups at each measurement time point. Differences are considered statistically significant at P<0.05.
Test substance was administered subcutaneously (SC) in two dosing patterns, the first was 24 hours and 15 minutes before skin punch, and the second was 4 hours and 15 minutes before skin punch; the dosing time of vehicle (ON 01210.Na Placebo Solution) was given as the second pattern. The wound closure (%) and wound half-closure time (CT50) were determined. One-way ANOVA followed by Dunnett's test was applied for comparison between the treated and vehicle groups. *P<0.05, vs. vehicle control.

[1] = 500 mg/kg × 2 SC (−4 hr, −15 min), individual surviving mice N 1-6, sodium salt
[2] = 500 mg/kg × 2 SC (−4 hr, −15 min), individual surviving mice N 1-6
[3] = 500 mg/kg × 2 SC (−4 hr, −15 min before skin punch), mean of surviving animals, sodium salt
[4] = 500 mg/kg × 2 SC (−4 hr, −15 min before skin punch), mean of surviving animals
[5] = 500 mg/kg × 2 SC (−24 hr, −15 min), individual mice N 1-8
[6] = 500 mg/kg × 2 SC (−24 hr, −15 min), individual mice N 1-8, sodium salt
[7] = 500 mg/kg × 2 SC (−24 hr, −15 min before skin punch), group mean
[8] = 500 mg/kg × 2 SC (−24 hr, −15 min before skin punch), group mean, sodium salt

O=C([O-])c1ccc(/C=C/S(=O)(=O)Cc2ccc(Cl)cc2)cc1.[Na+] [ON 01210.Na Solution, (E)-4-carboxystyryl-4-chlorobenzylsulfone sodium salt]
Effect on wound closure vs vehicle control (500 mg/kg SC, 4 hr and 15 min before skin punch, surviving animals, P<0.05 vs vehicle): significant increase in wound closure on days 13 and 15
Effect on wound closure / wound healing vs vehicle control (500 mg/kg SC, 24 hours and 15 minutes before skin punch, P<0.05 vs vehicle, sodium salt): promoted significant increase in wound closure on days 3, 5, 7, 13, 15 and 17; also recorded: promoted wound healing with significant reduction in CT50 value
The Closure of Wound (%), Individual Value, Day 1 (500 mg/kg × 2 SC (−4 hr, −15 min), individual mice N 1-8): 0.0%
The Closure of Wound (%), Individual Value, Day 3 [1]: 27.9% and 13.0% and 31.4% and 13.4% and 40.5% and 11.7%
The Closure of Wound (%), Individual Value, Day 5 [1]: 40.2% and 23.3% and 37.2% and 24.9% and 48.5% and 18.4%
The Closure of Wound (%), Individual Value, Day 7 [1]: 48.0% and 32.9% and 41.9% and 36.2% and 62.4% and 34.6%
The Closure of Wound (%), Individual Value, Day 9 [1]: 59.0% and 49.2% and 60.3% and 52.9% and 76.3% and 43.0%
The Closure of Wound (%), Individual Value, Day 11 [1]: 65.3% and 68.7% and 73.5% and 77.1% and 79.6% and 66.1%
The Closure of Wound (%), Individual Value, Day 13 [1]: 84.2% and 90.4% and 90.3% and 78.8% and 93.1% and 88.0%
The Closure of Wound (%), Individual Value, Day 15 [1]: 93.4% and 94.6% and 97.2% and 100.0% (2×) and 97.6%
The Closure of Wound (%), Individual Value, Day 17 [1]: 96.7% and 100.0% (5×)
The Closure of Wound (%), Individual Value, Day 19 [2]: 100.0%
The Closure of Wound (%), Individual Value, Day 21 [2]: 100.0%
The Closure of Wound (%), Individual Value, Day 22 [2]: 100.0%
CT50 (Days), Individual Value [1]: 8.0 days and 9.2 days and 7.7 days and 8.9 days and 5.8 days and 9.4 days
Animal died (entry in individual wound-closure tables) (500 mg/kg × 2 SC (−4 hr, −15 min), mice N 7 and 8, Days 3-22, sodium salt): died and Died
The Closure of Wound (%) Day 1, Mean (500 mg/kg × 2 SC (−4 hr, −15 min before skin punch), group mean): 0.0%
The Closure of Wound (%) Day 3, Mean [3]: 23.0%
The Closure of Wound (%) Day 5, Mean [4]: 32.1%
The Closure of Wound (%) Day 7, Mean [4]: 42.7%
The Closure of Wound (%) Day 9, Mean [4]: 56.8%
The Closure of Wound (%) Day 11, Mean [4]: 71.7%
The Closure of Wound (%) Day 13, Mean [3]: 87.5%
The Closure of Wound (%) Day 15, Mean [3]: 97.1%
The Closure of Wound (%) Day 17, Mean [4]: 99.4%
The Closure of Wound (%) Day 19, Mean [4]: 100.0%
The Closure of Wound (%) Day 21, Mean [4]: 100.0%
The Closure of Wound (%) Day 22, Mean [4]: 100.0%
CT50 (Days), wound half-closure time, Mean [3]: 8.2 ± 0.5 days and 8.2 days
The Closure of Wound (%), Individual Value, Day 1 [5]: 0.0%
The Closure of Wound (%), Individual Value, Day 3 [6]: 36.8% and 15.2% and 28.2% and 23.1% and 21.6% and 42.8% and 29.4% and 41.1%
The Closure of Wound (%), Individual Value, Day 5 [6]: 51.5% and 35.7% and 39.1% and 45.1% and 37.7% and 35.6% and 40.9% and 44.4%
The Closure of Wound (%), Individual Value, Day 7 [6]: 49.7% and 47.0% and 45.6% and 56.9% and 46.8% and 60.4% and 52.0% and 55.8%
The Closure of Wound (%), Individual Value, Day 9 [6]: 74.1% and 60.1% and 54.4% and 63.6% and 54.1% and 79.4% and 64.0% and 69.1%
The Closure of Wound (%), Individual Value, Day 11 [6]: 79.5% and 81.7% and 70.4% and 76.3% and 64.4% and 84.4% and 71.4% and 80.8%
The Closure of Wound (%), Individual Value, Day 13 [6]: 84.4% and 90.6% and 83.7% and 89.6% and 85.8% and 95.8% and 80.7% and 95.6%
The Closure of Wound (%), Individual Value, Day 15 [6]: 89.8% and 100.0% (5×) and 97.6% and 88.8%
The Closure of Wound (%), Individual Value, Day 17 [5]: 100.0%
The Closure of Wound (%), Individual Value, Day 19 [5]: 100.0%
The Closure of Wound (%), Individual Value, Day 21 [5]: 100.0%
The Closure of Wound (%), Individual Value, Day 22 [6]: 100% (2×) and 100.0% (6×)
CT50 (Days), Individual Value [6]: 6.6 Days and 8.0 Days (2×) and 7.2 Days and 8.3 Days and 6.0 Days and 7.6 Days and 6.2 Days
The Closure of Wound (%) Day 1, Mean [7]: 0.0%
The Closure of Wound (%) Day 3, Mean [8]: 29.8%
The Closure of Wound (%) Day 5, Mean [8]: 41.3%
The Closure of Wound (%) Day 7, Mean [8]: 51.8%
The Closure of Wound (%) Day 9, Mean [7]: 64.8%
The Closure of Wound (%) Day 11, Mean [7]: 76.1%
The Closure of Wound (%) Day 13, Mean [8]: 88.3%
The Closure of Wound (%) Day 15, Mean [8]: 97.0%
The Closure of Wound (%) Day 17, Mean [8]: 100.0%
The Closure of Wound (%) Day 19, Mean [7]: 100.0%
The Closure of Wound (%) Day 21, Mean [7]: 100.0%
The Closure of Wound (%) Day 22, Mean [7]: 100.0%
CT50 (Days), wound half-closure time, Mean [8]: 7.2 ± 0.3 days and 7.2 days
Animals died (mortality) (500 mg/kg × 2 SC given 4 hr and 15 min before skin punch (interval 3 hr 45 min), mice, cause of death not known, sodium salt): two out of eight animals died; also recorded: (2/8 died)
Wound healing, percentage of wound closure (FIG. 1) (pre-treated 24 hour or 4 hour prior to wound vs placebo): significant improvement in wound healing
